Marks after values point to notes of the source that are not given here.
Assay: Phase I trial pharmacokinetics, single i.v. ascending doses
Type: in vivo, human
Conditions: human; for AUC(0-∞) Mean / AUC(0-∞) Min-max / C5min Min-max / CL Mean / CL Min-max / Cmax Mean / Cmax Min-max / Terminal t1/2 Mean / Terminal t1/2 Min-max / Vz Mean / Vz Min-max / C5min Mean: single i.v., liposomes
Method: A randomized, double-blind, placebo controlled study was performed to investigate the safety, tolerability and pharmacokinetics of single i.v. ascending doses of TRO40303 in healthy male and post-menopausal female subjects. The choice of the dose and flow rate escalation process is explained in the Result section. Seventy-two healthy volunteers were randomized, with 18 receiving a placebo and 54 an active liposomal formulation containing 20 mg/mL TRO40303 at final doses ranging from 0.5, 1, 2, 3.5, 6, 10 to 13 mg/kg with escalating flow rates from 0.04 mL/min to 35 mL/min. Within each group, 3 or 6 subjects received TRO40303 and 1 or 2 subjects received the same volume of placebo. The sample size was based on the number of doses and flow rates to be investigated. The 6 verum/2 placebo ratio per group is widely used in single ascending dose studies and provides adequate safety and pharmacokinetic information. The 3 verum/1 placebo ratio used in the last groups was chosen only to explore additional flow rates at previously studied doses.
Venous blood samples (5 mL) were collected for determination of TRO40303 concentrations in plasma at pre-dose, end of infusion, then 5 min, 15 min, 30 min, 1 h, 2 h, 4 h, 8 h, 12 h, 16 h, 24 h, 48 h, 72 h and 96 h post end of infusion into heparin–lithium Vacutainer tubes. The blood samples were gently inverted then centrifuged in a refrigerated centrifuge (+4°C) within 30 min after sampling at 1500 g for ca 10 min. The resulting plasma was frozen in two separate labelled polypropylene tubes at –20 ± 5°C until assaying.
For the quantifying TRO40303 levels in human plasma samples, the same method, GLP validated, was used and the analysis was performed at Bertin Pharma (Orleans, France). Analysis was carried out on 1200 Series (Agilent) and Series 200 (Perkin Elmer) systems interfaced to an API 4000 (AB Sciex) MS detector. Calculations were carried out with Analyst 1.4.1 and 1.5.1 (AB Sciex) software.

Which “dose proportionality of Cmax and AUC(0-∞)” value (from 0.5 to 6 mg/kg) does the source give for `CC(C)CCC[C@@H](C)[C@H]1CC[C@H]2[C@@H]3CC/C(=N\O)[C@](C)(CCCO)[C@H]3CC[C@]12C` [TRO40303, 3,5-seco-4-nor-cholestan-5-one oxime-3-ol] here?
Its value is “linear”.

What about the “hyper-proportionality of Cmax and AUC(0-∞)” value (from 6 to 13 mg/kg) of the same molecule?
The value was ~ 1.5 fold.

What about the “AUC(0-∞) Mean” value (0.5 mg/kg, n = 4) of the same molecule?
Its value is 15.5* μg.h/mL.

And the “AUC(0-∞) Min-max” value (0.5 mg/kg, n = 4)?
The value was 9130 to 20900 ng·h/mL.

And the “C5min Min-max” value (0.5 mg/kg, n = 6)?
The value was 1.59 to 3.92 µg/mL.

And the “CL Mean” value (0.5 mg/kg, n = 6)?
The value was 0.598 mL/min/kg.

And the “CL Min-max” value (0.5 mg/kg, n = 6)?
The value was 0.399 to 0.912 mL/min/kg.

What about the “Cmax Mean” value (0.5 mg/kg, n = 6) of the same molecule?
The value was 3320 ng/mL.

What about the “Cmax Min-max” value (0.5 mg/kg, n = 6) of the same molecule?
The value was 2310 to 4850 ng/mL.

What about the “Terminal t1/2 Mean” value (0.5 mg/kg, n = 6) of the same molecule?
The value was 29.5 h.

And the “Terminal t1/2 Min-max” value (0.5 mg/kg, n = 6)?
Its value is 27.0 to 31.5 h.

What about the “Vz Mean” value (0.5 mg/kg, n = 6) of the same molecule?
The value was 1.54 L/kg.

What about the “Vz Min-max” value (0.5 mg/kg, n = 6) of the same molecule?
Its value is 0.00103 to 0.00249 L/kg.

And the “C5min Mean” value (0.5 mg/kg, n = 6, 5 min post end of infusion)?
The value was 2.58 µg/mL.

What about the “AUC(0-∞) Mean” value (1 mg/kg, n = 6) of the same molecule?
Its value is 34.5 µg·h/mL.

And the “AUC(0-∞) Min-max” value (1 mg/kg, n = 6)?
Its value is 21000 to 43000 ng·h/mL.

What about the “C5min Min-max” value (1 mg/kg, n = 6) of the same molecule?
The value was 5.98 to 12.5 µg/mL.

What about the “CL Mean” value (1 mg/kg, n = 6) of the same molecule?
Its value is 0.509 mL/min/kg.

And the “CL Min-max” value (1 mg/kg, n = 6)?
Its value is 0.388 to 0.792 mL/min/kg.

And the “Cmax Mean” value (1 mg/kg, n = 6)?
The value was 10300 ng/mL.

And the “Cmax Min-max” value (1 mg/kg, n = 6)?
The value was 6060 to 14100 ng/mL.

And the “Terminal t1/2 Mean” value (1 mg/kg, n = 6)?
The value was 25.1 h.

And the “Terminal t1/2 Min-max” value (1 mg/kg, n = 6)?
The value was 22.9 to 26.8 h.

What about the “Vz Mean” value (1 mg/kg, n = 6) of the same molecule?
The value was 1.11 L/kg.

What about the “Vz Min-max” value (1 mg/kg, n = 6) of the same molecule?
Its value is 0.000899 to 0.00177 L/kg.

And the “C5min Mean” value (1 mg/kg, n = 6, 5 min post end of infusion)?
Its value is 9.26 µg/mL.

And the “C5min Min-max” value (2 mg/kg, n = 5)?
The value was 16.7 to 26.8 µg/mL.

What about the “C5min Mean” value (2 mg/kg, n = 5, 5 min post end of infusion) of the same molecule?
Its value is 23.6** μg/mL.

And the “AUC(0-∞) Mean” value (2 mg/kg, n = 6)?
The value was 68.6 µg·h/mL.

And the “AUC(0-∞) Min-max” value (2 mg/kg, n = 6)?
Its value is 50700 to 81500 ng·h/mL.

And the “CL Mean” value (2 mg/kg, n = 6)?
Its value is 0.499 mL/min/kg.

And the “CL Min-max” value (2 mg/kg, n = 6)?
The value was 0.409 to 0.657 mL/min/kg.

What about the “Cmax Mean” value (2 mg/kg, n = 6) of the same molecule?
The value was 23100 ng/mL.

What about the “Cmax Min-max” value (2 mg/kg, n = 6) of the same molecule?
Its value is 16000 to 31100 ng/mL.

And the “Terminal t1/2 Mean” value (2 mg/kg, n = 6)?
Its value is 26.4 h.

And the “Terminal t1/2 Min-max” value (2 mg/kg, n = 6)?
The value was 24.3 to 28.7 h.

What about the “Vz Mean” value (2 mg/kg, n = 6) of the same molecule?
Its value is 1.14 L/kg.

What about the “Vz Min-max” value (2 mg/kg, n = 6) of the same molecule?
The value was 0.00091 to 0.00152 L/kg.

What about the “AUC(0-∞) Mean” value (3.5 mg/kg, n = 9) of the same molecule?
Its value is 109 µg·h/mL.

What about the “AUC(0-∞) Min-max” value (3.5 mg/kg, n = 9) of the same molecule?
The value was 81000 to 163000 ng·h/mL.

And the “C5min Min-max” value (3.5 mg/kg, n = 9)?
Its value is 37.1 to 68.7 µg/mL.

And the “CL Mean” value (3.5 mg/kg, n = 9)?
The value was 0.560 mL/min/kg.

What about the “CL Min-max” value (3.5 mg/kg, n = 9) of the same molecule?
The value was 0.357 to 0.721 mL/min/kg.

And the “Cmax Mean” value (3.5 mg/kg, n = 9)?
The value was 51700 ng/mL.

And the “Cmax Min-max” value (3.5 mg/kg, n = 9)?
The value was 37700 to 68700 ng/mL.

What about the “Terminal t1/2 Mean” value (3.5 mg/kg, n = 9) of the same molecule?
The value was 25.1 h.

And the “Terminal t1/2 Min-max” value (3.5 mg/kg, n = 9)?
Its value is 23.1 to 27.7 h.

What about the “Vz Mean” value (3.5 mg/kg, n = 9) of the same molecule?
The value was 1.22 L/kg.

And the “Vz Min-max” value (3.5 mg/kg, n = 9)?
Its value is 0.000723 to 0.00152 L/kg.

What about the “C5min Mean” value (3.5 mg/kg, n = 9, 5 min post end of infusion) of the same molecule?
The value was 50.2 µg/mL.

What about the “AUC(0-∞) Mean” value (6 mg/kg, n = 11) of the same molecule?
The value was 229*** μg.h/mL.

And the “AUC(0-∞) Min-max” value (6 mg/kg, n = 11)?
The value was 147000 to 307000 ng·h/mL.

And the “C5min Min-max” value (6 mg/kg, n = 12)?
The value was 51.6 to 266 µg/mL.

And the “CL Mean” value (6 mg/kg, n = 12)?
Its value is 0.460 mL/min/kg.

— PMC3923730 (Journal of Translational Medicine, 2014)
